Values joined by “and” are separate entries in the source; they are usually repeats but may differ in a detail not shown here. Identical values can stand only once.
Conditions: Liquid

O=C=O [carbon dioxide]
Conditions | vapor or sublimation pressure [kPa]
258.44 K | 2294
278.25 K | 3977
298.84 K | 6502.6

CC(F)F [1,1-difluoroethane]
Conditions | vapor or sublimation pressure
253.68 K | 115.2 kPa
258.44 K | 142.2 kPa and 144 kPa
263.39 K | 174.9 kPa
268.32 K | 213.7 kPa
273.23 K | 256.8 kPa
278.19 K | 308.1 kPa
278.25 K | 311.7 kPa
283.31 K | 368.5 kPa
288.27 K | 432.9 kPa
293.23 K | 506.8 kPa
298.17 K | 590.3 kPa
298.84 K | 604.4 kPa
303.37 K | 687.6 kPa
308.31 K | 791 kPa
308.37 K | 812.5 kPa
313.19 K | 904.5 kPa
318.25 K | 1034.8 kPa
323.26 K | 1175.4 kPa
323.3 K | 1185.5 kPa
328.12 K | 1326.8 kPa
333.31 K | 1502.3 kPa
338.19 K | 1683.5 kPa
343.1 K | 1879.6 kPa
343.2 K | 1891.7 kPa
348.26 K | 2104.6 kPa
